# Laboratory results: ChEMBL document CHEMBL1201862, “PubChem BioAssay data set” (2004)
# Activity calls are given as the source filed them.
# Legend:
# [1] = insulin promoter down-regulators in MIN6 cells, imaging, high-content screening, mouse beta cells (AID 1628); format: functional
# [2] = cytotoxicity in MIN6 insulinoma cells, dose response, cytotoxicity control, cell-based, mouse insulinoma (AID 2122); format: functional;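 further: confirmatory high-throughput counterscreen run to flag cytotoxic compounds; mouse MIN-6 beta cells carrying an insulin promoter eGFP reporter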
# Protein Wnt-3a = Protein Wnt-3a (Mus musculus, UniProt P27467); assay: Wnt3a-driven reporter signaling inhibition, dose response, selectivity assay for Gli-SUFU antagonist project, Wnt-LIGHT cells, luminescence (AID 651570); format: functional; settings: read-out: IC50_Mean;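 further: Wnt-LIGHT reporter cells stimulated with conditioned medium from Wnt3a-producing cells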
# Protein Wnt-3a, sequence (P27467 whole entry): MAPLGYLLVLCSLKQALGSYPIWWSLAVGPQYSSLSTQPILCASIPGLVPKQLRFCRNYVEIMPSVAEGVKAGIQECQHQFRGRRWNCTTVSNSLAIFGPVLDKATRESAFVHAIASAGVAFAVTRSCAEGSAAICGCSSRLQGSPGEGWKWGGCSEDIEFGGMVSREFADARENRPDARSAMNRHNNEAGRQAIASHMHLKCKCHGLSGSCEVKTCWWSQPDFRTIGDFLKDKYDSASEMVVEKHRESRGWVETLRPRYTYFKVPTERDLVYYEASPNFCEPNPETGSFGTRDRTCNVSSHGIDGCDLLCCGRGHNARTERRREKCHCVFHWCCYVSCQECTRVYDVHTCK
# [3] = target: T1, Apoptotic protease-activating factor 1 (Homo sapiens, UniProt O14727); assay: SAR analysis of small molecule Activators of Apaf-1 in a Fluorescent assay.; format: functional; settings: read-out: EC50_Mean;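 further: caspase-3 cleavage of fluorogenic Rh110 DEVD substrate downstream of apoptosome activation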
# T1 sequence (O14727 whole entry): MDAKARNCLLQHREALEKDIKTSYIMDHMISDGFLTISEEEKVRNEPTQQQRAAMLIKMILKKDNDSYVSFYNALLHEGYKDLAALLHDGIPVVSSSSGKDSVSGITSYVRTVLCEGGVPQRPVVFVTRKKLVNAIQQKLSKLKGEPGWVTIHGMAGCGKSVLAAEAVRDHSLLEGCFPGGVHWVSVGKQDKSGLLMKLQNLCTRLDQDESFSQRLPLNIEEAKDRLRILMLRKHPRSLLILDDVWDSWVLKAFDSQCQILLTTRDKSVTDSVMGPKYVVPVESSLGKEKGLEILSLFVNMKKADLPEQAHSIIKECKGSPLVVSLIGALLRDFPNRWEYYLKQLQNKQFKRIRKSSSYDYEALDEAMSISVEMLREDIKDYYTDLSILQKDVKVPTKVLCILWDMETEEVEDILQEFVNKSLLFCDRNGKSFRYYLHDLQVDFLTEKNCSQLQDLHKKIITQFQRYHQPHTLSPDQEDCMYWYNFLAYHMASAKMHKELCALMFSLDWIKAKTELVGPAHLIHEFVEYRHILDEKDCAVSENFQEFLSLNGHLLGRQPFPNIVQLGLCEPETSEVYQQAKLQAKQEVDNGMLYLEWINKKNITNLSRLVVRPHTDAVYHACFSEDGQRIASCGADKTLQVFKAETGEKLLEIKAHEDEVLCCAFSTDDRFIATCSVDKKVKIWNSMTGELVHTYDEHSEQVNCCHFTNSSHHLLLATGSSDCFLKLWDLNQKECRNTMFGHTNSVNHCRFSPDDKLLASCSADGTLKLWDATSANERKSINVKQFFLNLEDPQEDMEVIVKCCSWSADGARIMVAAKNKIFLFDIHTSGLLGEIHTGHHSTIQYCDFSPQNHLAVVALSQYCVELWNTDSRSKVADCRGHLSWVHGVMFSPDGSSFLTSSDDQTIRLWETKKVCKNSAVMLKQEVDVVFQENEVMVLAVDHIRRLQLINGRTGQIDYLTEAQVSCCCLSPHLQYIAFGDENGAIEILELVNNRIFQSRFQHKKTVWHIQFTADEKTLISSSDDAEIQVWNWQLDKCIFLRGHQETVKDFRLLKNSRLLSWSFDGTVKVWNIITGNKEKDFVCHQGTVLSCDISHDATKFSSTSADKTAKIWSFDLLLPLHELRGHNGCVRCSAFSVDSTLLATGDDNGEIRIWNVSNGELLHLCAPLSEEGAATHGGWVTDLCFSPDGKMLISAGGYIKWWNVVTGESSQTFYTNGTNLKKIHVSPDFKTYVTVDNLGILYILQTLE
# [4] = target: T2, Polyadenylate-binding protein 1 (Homo sapiens, UniProt P11940); assay: PABP1 MLLE–PAM2 interaction inhibitors, dose response, miRNA deadenylation inhibitor project, biochemical, fluorescence polarization, Cy5-PAM2 peptide, secondary (AID 602260); format: functional; settings: read-out: IC50_Mean
# T2 sequence (P11940 whole entry): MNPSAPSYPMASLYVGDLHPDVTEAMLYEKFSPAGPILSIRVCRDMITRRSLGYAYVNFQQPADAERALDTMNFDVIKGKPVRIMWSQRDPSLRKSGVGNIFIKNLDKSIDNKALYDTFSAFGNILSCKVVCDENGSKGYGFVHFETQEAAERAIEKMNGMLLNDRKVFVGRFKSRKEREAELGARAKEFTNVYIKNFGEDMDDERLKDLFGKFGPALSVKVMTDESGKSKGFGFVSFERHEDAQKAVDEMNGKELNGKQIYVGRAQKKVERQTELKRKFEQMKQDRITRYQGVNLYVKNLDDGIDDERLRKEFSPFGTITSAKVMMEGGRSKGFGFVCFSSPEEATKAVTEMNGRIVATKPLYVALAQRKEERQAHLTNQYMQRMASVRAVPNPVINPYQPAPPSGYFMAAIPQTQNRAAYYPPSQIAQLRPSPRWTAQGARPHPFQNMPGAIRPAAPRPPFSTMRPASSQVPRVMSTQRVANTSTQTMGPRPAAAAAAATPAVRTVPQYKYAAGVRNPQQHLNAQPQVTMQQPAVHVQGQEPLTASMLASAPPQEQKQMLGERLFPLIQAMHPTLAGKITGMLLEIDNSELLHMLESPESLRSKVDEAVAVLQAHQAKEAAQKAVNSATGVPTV
# Melanocortin receptor 4 [5] = target: T3, Melanocortin receptor 4 (Homo sapiens, UniProt P32245); format: functional, cell-based;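 further: Cell-based assay with luminescence read-out, confirmatory dose-response testing for agonist activity of biased ligands at MC4R; human U2OS cells with tagged receptor and beta-arrestin; potency of agonists that increase receptor coupling to beta-arrestin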
# T3 sequence (P32245 whole entry): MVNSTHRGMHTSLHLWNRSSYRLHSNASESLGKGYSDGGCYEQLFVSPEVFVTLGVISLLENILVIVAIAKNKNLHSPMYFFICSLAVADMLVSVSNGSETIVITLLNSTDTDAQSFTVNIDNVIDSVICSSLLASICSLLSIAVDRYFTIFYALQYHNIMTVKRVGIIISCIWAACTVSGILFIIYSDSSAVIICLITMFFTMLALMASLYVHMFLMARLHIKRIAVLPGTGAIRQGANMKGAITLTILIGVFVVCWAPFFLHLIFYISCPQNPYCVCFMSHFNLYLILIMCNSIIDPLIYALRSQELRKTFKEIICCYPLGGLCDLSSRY
# [6] = target: T2, Polyadenylate-binding protein 1; assay: PABP1 MLLE–PAM2 binding inhibitor potency, dose response, biochemical, fluorescence polarization, FITC-PAM2 peptide (AID 602259); format: functional; settings: read-out: IC50_Mean
# [7] = inhibitors of intracellular T. cruzi replication, confirmation, NIH3T3 host cells, beta-gal luminescence (AID 2044); format: functional, cell-based;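 further: intracellular parasites grown in NIH/3T3 mouse fibroblasts as host cells; luminescent beta-galactosidase reporter signal from transgenic T. cruzi replicating inside host cells; inhibitors lower the luminescence signal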
# [8] = cytotoxicity toward NIH3T3 fibroblasts, dose response, counter-screen, cell-based, ATP luminescence, mouse fibroblasts (AID 2010); format: functional;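 further: cells exposed to compound for about 90 hours before reading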
# [9] = target: T4, Heat shock factor protein 1 (Mus musculus, UniProt P38532); assay: HSF1 potentiators in luciferase reporter cells, confirmation, cell-based, NIH3T3, luminescence, dose retest (AID 435004); format: functional;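 further: stress induced by proteasome inhibitor MG132 added 30 min after compound; luciferase reporter driven by HSF1 response element in NIH3T3 cells; actives raise luminescence as potentiators of the MG132 stress response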
# T4 sequence (P38532 whole entry): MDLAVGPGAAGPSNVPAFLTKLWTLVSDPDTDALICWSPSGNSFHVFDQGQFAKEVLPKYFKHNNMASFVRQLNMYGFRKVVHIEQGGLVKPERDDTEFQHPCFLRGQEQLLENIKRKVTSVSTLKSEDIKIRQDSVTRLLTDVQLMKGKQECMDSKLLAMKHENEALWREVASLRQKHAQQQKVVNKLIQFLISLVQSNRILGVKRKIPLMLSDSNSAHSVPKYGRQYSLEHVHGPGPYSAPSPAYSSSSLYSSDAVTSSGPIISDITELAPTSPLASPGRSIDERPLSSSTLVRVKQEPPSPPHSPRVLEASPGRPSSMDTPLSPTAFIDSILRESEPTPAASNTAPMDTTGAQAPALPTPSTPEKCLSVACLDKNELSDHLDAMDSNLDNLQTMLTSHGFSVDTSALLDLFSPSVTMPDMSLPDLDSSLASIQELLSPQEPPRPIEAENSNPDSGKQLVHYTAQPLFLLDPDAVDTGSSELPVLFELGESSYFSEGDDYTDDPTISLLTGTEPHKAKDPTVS
# [10] = target: T5, Replicative DNA helicase DnaB (Mycobacterium tuberculosis, UniProt P9WMR3); assay: DnaB intein splicing inhibitors, dose response, biochemical, cell-free fluorescence (AID 449749); format: functional
# T5 sequence (P9WMR3 whole entry): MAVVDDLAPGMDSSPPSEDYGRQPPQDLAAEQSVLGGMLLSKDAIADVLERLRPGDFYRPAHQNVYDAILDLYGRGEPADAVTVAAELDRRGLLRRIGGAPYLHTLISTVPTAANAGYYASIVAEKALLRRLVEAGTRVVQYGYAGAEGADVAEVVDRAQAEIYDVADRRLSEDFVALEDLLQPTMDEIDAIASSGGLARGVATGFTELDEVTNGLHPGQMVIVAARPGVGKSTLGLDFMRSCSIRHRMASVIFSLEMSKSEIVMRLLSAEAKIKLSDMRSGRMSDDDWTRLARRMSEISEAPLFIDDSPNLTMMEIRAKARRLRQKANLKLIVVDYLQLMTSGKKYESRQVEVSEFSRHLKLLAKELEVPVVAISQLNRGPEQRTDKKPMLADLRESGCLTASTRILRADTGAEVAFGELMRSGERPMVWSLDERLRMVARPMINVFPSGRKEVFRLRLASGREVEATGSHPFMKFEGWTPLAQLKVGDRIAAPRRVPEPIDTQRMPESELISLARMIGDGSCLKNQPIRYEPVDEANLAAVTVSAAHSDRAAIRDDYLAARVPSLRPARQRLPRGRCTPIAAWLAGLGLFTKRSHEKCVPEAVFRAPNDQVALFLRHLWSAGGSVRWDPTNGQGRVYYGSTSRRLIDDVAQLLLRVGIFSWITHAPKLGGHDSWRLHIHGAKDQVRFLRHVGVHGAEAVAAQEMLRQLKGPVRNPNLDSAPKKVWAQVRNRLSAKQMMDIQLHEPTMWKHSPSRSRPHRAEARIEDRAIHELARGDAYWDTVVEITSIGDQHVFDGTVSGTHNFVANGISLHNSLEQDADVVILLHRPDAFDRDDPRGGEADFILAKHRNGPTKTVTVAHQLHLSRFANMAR
# Protein RecA = target: T6, Protein RecA (Mycobacterium tuberculosis, UniProt P9WHJ3); assay: Fluorescence Cell-Free Homogeneous Dose Retest to Identify Inhibitors of RecA-Intein Splicing Activity. [Related pubchem assays (depositor defined):AID2097, AID2223, AID489010, AID492950]; format: functional
# T6 sequence (P9WHJ3 whole entry): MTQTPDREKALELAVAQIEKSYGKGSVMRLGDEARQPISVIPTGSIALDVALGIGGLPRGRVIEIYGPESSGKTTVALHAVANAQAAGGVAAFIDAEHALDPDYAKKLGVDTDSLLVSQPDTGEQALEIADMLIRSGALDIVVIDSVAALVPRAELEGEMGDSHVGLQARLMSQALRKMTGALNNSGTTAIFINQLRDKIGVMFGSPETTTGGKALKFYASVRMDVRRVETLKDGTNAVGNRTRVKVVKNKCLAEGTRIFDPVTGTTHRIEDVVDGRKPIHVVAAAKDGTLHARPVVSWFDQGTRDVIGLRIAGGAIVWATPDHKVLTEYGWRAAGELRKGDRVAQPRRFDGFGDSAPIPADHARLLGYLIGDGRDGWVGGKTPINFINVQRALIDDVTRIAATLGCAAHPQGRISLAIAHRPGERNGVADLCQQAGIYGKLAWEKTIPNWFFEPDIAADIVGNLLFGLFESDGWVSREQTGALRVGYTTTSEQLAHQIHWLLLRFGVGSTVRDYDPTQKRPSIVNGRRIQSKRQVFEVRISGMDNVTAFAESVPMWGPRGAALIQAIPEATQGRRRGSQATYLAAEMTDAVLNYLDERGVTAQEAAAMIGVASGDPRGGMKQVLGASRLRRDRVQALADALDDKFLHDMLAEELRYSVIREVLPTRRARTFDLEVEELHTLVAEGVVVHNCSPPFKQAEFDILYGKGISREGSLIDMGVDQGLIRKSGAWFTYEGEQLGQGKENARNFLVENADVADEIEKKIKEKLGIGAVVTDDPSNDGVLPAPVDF
# Melanocortin receptor 4 [11] = target: T3, Melanocortin receptor 4; assay: MC4R antagonist potency on cAMP, dose response, cell-based, TR-FRET, biased antagonists (AID 602298); format: functional;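 further: antagonist potency against agonist-stimulated cAMP production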
# [12] = nonselective inhibitors of cellular cAMP signaling, dose response, counter-screen for MC4R biased antagonist project, cell-based, TR-FRET cAMP detection (AID 602305); format: functional;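 further: U2OS cells stimulated with forskolin near its EC80 as the cAMP inducer; potency is for inhibition of forskolin-stimulated cAMP signaling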
# [13] = target: T7, Methionyl-tRNA synthetase, putative (Trypanosoma brucei brucei, UniProt Q38C91); format: functional, Trypanosoma brucei brucei strain 927/4 GUTat10.1
# T7 sequence (Q38C91 whole entry): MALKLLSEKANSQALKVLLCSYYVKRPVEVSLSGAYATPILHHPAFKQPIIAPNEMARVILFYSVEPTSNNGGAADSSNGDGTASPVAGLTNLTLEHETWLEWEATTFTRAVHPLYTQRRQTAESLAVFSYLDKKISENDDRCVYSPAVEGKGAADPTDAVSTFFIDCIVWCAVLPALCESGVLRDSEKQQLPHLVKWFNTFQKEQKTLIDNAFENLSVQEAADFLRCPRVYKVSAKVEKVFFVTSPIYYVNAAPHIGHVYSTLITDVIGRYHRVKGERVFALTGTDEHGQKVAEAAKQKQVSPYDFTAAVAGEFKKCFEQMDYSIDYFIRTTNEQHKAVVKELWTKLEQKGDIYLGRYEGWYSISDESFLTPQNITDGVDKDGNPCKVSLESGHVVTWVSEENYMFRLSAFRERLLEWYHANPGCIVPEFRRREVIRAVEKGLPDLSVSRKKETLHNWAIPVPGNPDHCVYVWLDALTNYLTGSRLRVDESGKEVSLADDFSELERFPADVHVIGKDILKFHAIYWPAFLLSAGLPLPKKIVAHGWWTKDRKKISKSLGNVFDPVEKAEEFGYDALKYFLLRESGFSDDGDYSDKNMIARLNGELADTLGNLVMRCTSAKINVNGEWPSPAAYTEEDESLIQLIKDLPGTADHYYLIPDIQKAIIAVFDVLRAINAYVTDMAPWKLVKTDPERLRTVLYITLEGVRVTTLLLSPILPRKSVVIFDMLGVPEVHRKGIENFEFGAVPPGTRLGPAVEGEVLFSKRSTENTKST
# [14] = Counterscreen for inhibitors of Trypanosoma brucei methionyl tRNA synthetase (MetRS): Luminescence-based cell-based high throughput dose response assay to identify compounds that are cytotoxic to Jurkat human T lymphocyte cells.; format: functional
# [15] = target: T7, Methionyl-tRNA synthetase, putative; format: functional, Trypanosoma brucei brucei strain 927/4 GUTat10.1; remark: listed apart in the source
# HEK293 [16] = assay: cells; settings: Homo sapiens
# HEK293 [17] = assay: cells; settings: Homo sapiens; remark: listed apart in the source
# [18] = AlphaScreen signal interference compounds, dose response, artefact control for ARNT-TACC3 interaction inhibitor project, biochemical, luminescence, cherry-pick (AID 651705); format: functional;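 further: AlphaScreen bead proximity signal that flags compounds interfering with the detection technology; potency reflects signal decrease which marks the compound as an assay artifact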
smiles,measurement,setting,value
C=CCNc1nc2c(c(=O)n(C)c(=O)n2C)n1Cc1ccc(F)cc1,IC50,[1],1.13 µM (active)
same,IC50,[2],892 nM (active)
same,IC50,Protein Wnt-3a,5.06 µM (active)
COc1ccc(C)cc1NC(=O)CCS(=O)(=O)c1ccc2c(c1)NC(=O)CS2,EC50,[3],> 100 µM (inactive)
Cc1ccc(OCC(=O)NC(=S)Nc2cccc(NC(=O)c3ccccc3)c2)cc1,IC50,[4],> 66 µM (inactive)
same,EC50,Melanocortin receptor 4 [5],> 89.2 µM (inactive)
same,IC50,[6],> 66 µM (inactive)
O=C(CCl)c1ccc2c(c1)CCN2C(=O)C1CCCCC1,EC50,[7],1.92 µM (active)
same,EC50,[8],6.6 µM (active)
same,EC50,[9],4.1 µM (inconclusive)
same,AC50,[10],42.4 µM (active)
same,EC50,Protein RecA,4.08 µM (active)
same,IC50,Melanocortin receptor 4 [11],> 64.6 µM (inactive)
same,IC50,[12],> 64.6 µM (inactive)
NC(Cc1ccc(Cl)cc1)c1csc(NC(=O)Nc2ccccc2)n1 (configuration not stated),EC50,Melanocortin receptor 4 [5],> 89.2 µM (inactive)
same,IC50,[13],4.07 µM (active)
same,IC50,[14],13.7 µM (inactive)
same,IC50,[15],2.09 µM (active)
same,EC50,HEK293 [16],> 59.6 µM (inactive)
same,EC50,HEK293 [17],> 59.6 µM (inactive)
CC[N+](CC)(CC#Cc1ccccc1)CC#Cc1ccccc1,IC50,Protein Wnt-3a,35.2 µM (inactive)
CC1CC1C(=O)Nc1nc(-c2ccccn2)cs1 (configuration not stated),AC50,[18],82.6 µM (active)
